From US20070043122A1, “Use of 2,2,3,3, tetramethylcyclopropane carboxylic acid derivatives for treating psychiatric disorders” (YISSUM RESEARCH DEVELOPMENT CO. OF THE HEBREW UNIVERSITY OF …, priority 2003, published 2007)
Like-named read-outs stand apart in the source and are kept apart here.

Assays:
[1] = tested on: neural tube defects (NTDs); settings: in vivo; cited from earlier work
human brain MIP synthase = molecular target: T1, human brain MIP synthase (Homo sapiens, UniProt Q9NPH2); experiment: Human brain MIP synthase activity in postmortem prefrontal cortex homogenate; type: biochemical; settings: for Ki: human brain homogenate; for inhibited MIP synthase activity (which of the other psychotropic drugs): at concentrations 1.5 times greater than their upper therapeutic range (concentrations in Table 2)
T1 construct: supernatant fraction obtained after sonication; from tissue; host or cells: postmortem human prefrontal cortex, 9,000 x g supernatant of sonicated homogenate
T1 sequence (Q9NPH2 1-558): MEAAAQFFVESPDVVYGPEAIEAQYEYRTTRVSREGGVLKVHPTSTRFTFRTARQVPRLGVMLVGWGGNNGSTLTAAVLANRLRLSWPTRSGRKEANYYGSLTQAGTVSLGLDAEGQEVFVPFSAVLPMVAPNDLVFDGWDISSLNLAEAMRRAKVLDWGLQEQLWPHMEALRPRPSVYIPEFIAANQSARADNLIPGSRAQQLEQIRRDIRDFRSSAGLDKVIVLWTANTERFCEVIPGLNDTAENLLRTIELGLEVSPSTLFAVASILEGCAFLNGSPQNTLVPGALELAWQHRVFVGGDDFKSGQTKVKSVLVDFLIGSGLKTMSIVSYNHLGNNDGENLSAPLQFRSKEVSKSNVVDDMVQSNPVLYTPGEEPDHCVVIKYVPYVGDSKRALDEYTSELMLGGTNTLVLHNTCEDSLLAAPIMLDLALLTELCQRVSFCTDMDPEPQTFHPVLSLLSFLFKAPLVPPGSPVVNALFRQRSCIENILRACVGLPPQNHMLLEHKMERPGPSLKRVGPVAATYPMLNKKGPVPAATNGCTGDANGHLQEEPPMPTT
Method: Human brain MIP synthase activity. Five μl of the supernatant fraction obtained after sonication (Ultrasonic Processor, Newtown, Conn., 15 sec at 0.1 output watts at 4° C.) and centrifugation for 20 min at 9,000×g at 4° C. of postmortem human prefrontal cortex (1 mg wet weight in 0.5 ml of 50 mM Tris HCl, pH 7.4) were added to 20 μl reaction mixture containing 4 mM D-glucose-6-phosphate, 1.25 μCi D-glucose-6-phosphate [^14C], 1.6 mM NAD^+, 0.45 mM KCl, 5.4 mM MgCl2 and 0.9 mM Tris HCl, pH 7.6, with or without 5 mU IMPase (Sigma, St. Louis). Incubation with or without various drugs concentrations (table 2 and table 3) was carried out for 3 hours (within the linear range) at 37° C. The reaction was stopped by adding 50 μl cold double distilled water (ddH20). Seventy out of the 80 μl were added to test tubes containing 1.25 g strong basic anion resin (Amberjet 4200, Rohm and Haas, Philadelphia) in 1 ml ddH2O. The mixtures were vortexed for 10 min, then centrifugated for 10 min at 10,000×g at room temperature, and 200 μl supernatant taken for ^14C counting (Liquid Scintillation Counter, Kontron, Basel). The enzymatic activity was calculated by subtracting values without IMPase from the measures with IMPase. The measurements were carried out in triplicate.
Table 2 details the drugs and their concentrations compared with their therapeutic concentrations, studied for possible inhibition of human brain MIP synthase activity. Each drug was tested twice, each experiment in triplicate.

[2] = 400 mg/kg/day IP twice daily for 9 or 28 days; cited from earlier work
[3] = tested on: growth cones of newborn rat dorsal root ganglia (DRG) cells; settings: reversed by addition of myo-inositol; cited from earlier work
[4] = tested on: whole brain inositol levels; experiment: Whole brain inositol levels in mice after chronic VPA administration; type: in vivo; settings: for mice whole brain inositol levels: means ± S.E.M.
Method: (§1) Animals. The study was approved by the Ben-Gurion University (Beer Sheva, Israel) Institutional Review Committee for the Use of Animals, and the procedures were carried out in compliance with the declaration of the National Institute of Health Guide for care and use of laboratory animals [Council N R, editor. Guide for the care and use of laboratory animals. Washington, D.C.: National Academy Press; 1996]. […] J Neurochem 1999; 72(2):879-82] which approximate therapeutically-relevant plasma levels. […] Prog Neurobiol 1999; 58(1):31-59]. One saline-injected group was sacrificed right after the injection. All other four groups were sacrificed one hour after the injection. Frontal cortex was removed from all mice right after sacrifice and frozen (−70° C.) till further processing. […] Mice of group II (n=13, controls) were injected saline (IP) twice a day. Animals were then sacrificed, brain removed and dealt as above.
Gas chromatographic measurement of brain inositol levels. Mouse brain free inositol levels were analyzed as trimethylsilyl (TMS) derivatives by gas-liquid chromatography (GC), as described in Shapiro J et al [Shapiro J, Belmaker R H, Beigon A, Seker A, Agam G. Scyllo-Inositol in Post-Mortem Brain of Suicide Victims, Bipolar, Unipolar and Schizophrenic Patients. J Neural Transm 2000; 107: 603-607] using a capillary column. […] Replicate reliability was tested in rat brain. […] Each sample extract was assayed at least in duplicate. The results presented are the average of the replicates. Assays were performed in a blind and balanced design such that each run included samples from all comparison groups.

IMPase = molecular target: T2, IMPase (Homo sapiens, UniProt P29218); settings: cited from earlier work
T2 sequence (P29218 1-277): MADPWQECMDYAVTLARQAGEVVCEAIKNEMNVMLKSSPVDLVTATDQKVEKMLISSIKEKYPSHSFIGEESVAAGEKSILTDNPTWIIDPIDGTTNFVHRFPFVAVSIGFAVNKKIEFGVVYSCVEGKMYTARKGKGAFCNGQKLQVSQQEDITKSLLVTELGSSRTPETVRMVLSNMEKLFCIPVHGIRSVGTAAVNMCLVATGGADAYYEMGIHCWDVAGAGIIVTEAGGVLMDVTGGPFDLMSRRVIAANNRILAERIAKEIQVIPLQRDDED

[5] = tested on: frontal cortex inositol levels; experiment: Frontal cortex inositol levels in mice after a single dose of VPA (gas chromatography); type: in vivo; settings: acute, single IP dose 300, 600, 800 mg/kg, sacrificed one hour after injection; all concentrations tested
Method: as §1
Gas chromatographic measurement of brain inositol levels. Mouse brain free inositol levels were analyzed as trimethylsilyl (TMS) derivatives by gas-liquid chromatography (GC), as described in Shapiro J et al [Shapiro J, Belmaker R H, Beigon A, Seker A, Agam G. Scyllo-Inositol in Post-Mortem Brain of Suicide Victims, Bipolar, Unipolar and Schizophrenic Patients. J Neural Transm 2000; 107: 603-607] using a capillary column. […] Replicate reliability was tested in rat brain. […]

growth cones of rat DRGs = experiment: Growth cone spreading in rat neuron DRG explants; type: cell-based; settings: 1 mM, 24 hour exposure
Method: Rat neuron DRG (dorsal root ganglia) explants. […] After 24 hours for attachment, cytosine β-arabinofuranoside (ara-C, 10 μM) was added for 24 hours to kill non-neuronal cells. […] The explants were then fixed in 4% paraformaldehyde in PBS (Phosphate buffered saline) for 20 minutes at room temperature. Growth cones were analysed on an inverted microscope (Zeiss Axiovert) and measured using an NIH Image software.

CNC(=O)C1C(C)(C)C1(C)C [M-TMCD, N-methyl-2,2,3,3-tetramethylcyclopropanecarboxamide]
teratogenicity [1]: lack of teratogenicity
inhibition at 1300 µM (human brain MIP synthase; read-out: Inhibition of human brain MIP synthase activity): 93%

CCCC(CCC)C(=O)O [VPA, valproic acid]
blood VPA levels [2]: 0.27 ± 0.02 mM
effect on spreading of growth cones of newborn rat DRG cells [3]: increased spreading
mice whole brain inositol levels ([4]; IP injection of VPA twice a day, 400-800 mg/kg/day, fourteen days): 27.9 ± 3.2
mice whole brain inositol levels ([4]; VPA in drinking water (12.5 g/liter) for 11 days): 30.1 ± 1.7
effect of chronic VPA on brain inositol levels ([4]; eleven days in drinking water or 14 days IP injection): did not deplete brain inositol levels
effect on IMPase activity (IMPase): no effect
inhibition at 1000 µM (human brain MIP synthase; 1.0 mM): 100%
Ki (human brain MIP synthase; read-out: Ki for MIP synthase (Dixon's plot)): 210 µM
Ki (human brain MIP synthase; read-out: Ki for MIP synthase (Lineweaver-Burk plot)): 240 µM
reduction in frontal cortex inositol concentration [5]: 20%

CCCC(CCC)C(N)=O [VPD, valpromide]
inhibition at 1400 µM (human brain MIP synthase; 1.4 mM): 34%
effect on growth cone spreading of DRGs (growth cones of rat DRGs): no increased growth cone spreading

NC(=O)N1c2ccccc2C=Cc2ccccc21 [carbamazepine]
effect on spreading of growth cones of newborn rat DRG cells [3]: increased spreading
inhibited MIP synthase activity (which of the other psychotropic drugs) (human brain MIP synthase): None

CN(C)CCCN1c2ccccc2Sc2ccc(Cl)cc21 [chlorpromazine]
inhibited MIP synthase activity (which of the other psychotropic drugs) (human brain MIP synthase): None

CN(C)CCCN1c2ccccc2CCc2ccc(Cl)cc21 [clomipramine]
inhibited MIP synthase activity (which of the other psychotropic drugs) (human brain MIP synthase): None

O=C(CCCN1CCC(O)(c2ccc(Cl)cc2)CC1)c1ccc(F)cc1 [haloperidol]
inhibited MIP synthase activity (which of the other psychotropic drugs) (human brain MIP synthase): None

CN(C)CCCN1c2ccccc2CCc2ccccc21 [imipramine]
inhibited MIP synthase activity (which of the other psychotropic drugs) (human brain MIP synthase): None

O=C1NC(=O)C(c2ccccc2)(c2ccccc2)N1 [phenytoin]
inhibited MIP synthase activity (which of the other psychotropic drugs) (human brain MIP synthase): None
